The record followed here is patent publication US6642251B1, “Geometrically restricted 2-indolinone derivatives as modulators of protein kinase activity” (Sugen, Inc., priority 1998, dated 2003).

Structures are written as SMILES.

One assay has as its target Pyk2 (Homo sapiens, UniProt Q14289). The assay can be described thus: Pyk2 assay. As to Pyk2, outcome of primary assay: key: DNH = did not hit in primary assay. The format is biochemical.
The next assay concerns the target T1, IGF-1 receptor (Homo sapiens, UniProt P08069).
T1 construct: expressed in transfected cells; host or cells: NIH3T3/IGF-1R
The assay can be described thus: Cellular IGF-1 receptor assay (cell IGF). As to cell IGF, outcome of primary assay: key: DNH = did not hit in primary assay. The format is cell-based. As to the method:
The following protocol may be used to measure phosphotyrosine level on IGF-1 receptor, which indicates IGF-1 receptor tyrosine kinase activity.
a. The cell line used in this assay is 3T3/IGF-1R, a cell line genetically engineered to overexpresses IGF-1 receptor.
2. […] Incubate for 1 day then replace medium to serum-free medium (90/μl) and incubate in 5% CO2 and 37° C. overnight.
2. Remove the coating solution, and replace with 100 μl Blocking Buffer, and shake for 30 minutes. Remove the blocking buffer and wash the plate just before adding lysate.
1. The drugs are tested under serum-free condition.
2. Dilute drug stock (in 100% DMSO) 1:10 with DMEM in 96-well poly-propylene plate, and transfer 10 μl/well of this solution to the cells to achieve final drug dilution 1:100, and final DMSO concentration of 1.0%. Incubate the cells in 5% CO2 at 37° C. for 2 hours.
3. Prepare fresh cell lysis buffer (HNTG*)
4. After drug incubation for two hours, transfer 10 μl/well of 200 nM IGF-1 Ligand in PBS to the cells (Final Conc. is 20 nM), and incubate at 5% CO2 at 37° C. for 10 minutes.
5. Remove media and add 100 μl/well HNTG* and shake for 10 minutes. Look at cells under microscope to see if they are adequately lysed.
6. Use a 12-channel pipette to scrape the cells from the plate, and homogenize the lysate by repeated aspiration and dispensing. Transfer all the lysate to the antibody coated ELISA plate, and shake for 1 hour.
7. Remove the lysate, wash the plate, transfer anti-pTyr (1:3,000 with TBST) 100 μl/well, and shake for 30 minutes.
8. Remove anti-pTyr, wash the plate, transfer TAGO (1:3,000 with TBST) 100 μl/well, and shake for 30 minutes.
9. Remove detection antibody, wash the plate, and transfer fresh ABTS/H2O2 (1.2 μl H2O2 to 10 ml ABTS) 100 μl/well to the plate to start color development.
10. Measure OD at 410 nm with a reference wavelength of 630 nm in Dynatec MR5000.

Another assay deals with T2, PDGFR (Homo sapiens, UniProt P09619).
T2 construct: expressed in transfected cells; host or cells: NIH 3T3
Put plainly: Biochemical PDGFR assay (bio PDGFR), ELISA. The following applies: 50% inhibition of target PTK activity; read-out: bio PDGFR IC50. On the procedure:
This assay measures the in vitro kinase activity of PDGFR using ELISA.
6. PDGFR-β expressing NIH 3T3 cell lysate (Screening Lab, SUGEN, Inc.).
1. Coat Corning 96 well ELISA plates with 0.5 μg 28D4C10 in 100 μl PBS per well, store overnight at 4° C.
2. Remove unbound 28D4C10 from wells by inverting plate to remove liquid. Wash 1× with dH2O. Pat the plate on a paper towel to remove excess liquid.
(§1) 3. Add 150 μl of Blocking Buffer to each well. Incubate for 30 min. at room temperature with shaking.
(§2) 4. Wash plate 3× with deionized water, then once with TBST. Pat plate on a paper towel to remove excess liquid and bubbles.
5. Dilute lysate in HNTG (10 μg lysate/100 μl HNTG)
(§3) 6. Add 100 μl of diluted lysate to each well. Shake at room temperature for 60 min.
(§4) 7. Wash plates as described in 4, above.
8. Add 80 μl working kinase buffer mix to ELISA plate containing captured PDGFR.
10. Add 10 μl diluted test compound to ELISA plate.
(§5) 11. Incubate for 30 minutes while shaking at room temperature.
12. Add 10 μl ATP directly to all wells except negative control well (final well volume should be approximately 100 μl with 20 μM ATP in each well.) Incubate 30 minutes while shaking.
13. After 30 minutes, stop reaction by adding 10 μl of 200 mM EDTA (pH 8.0) to each well.
(§6) 14. Wash 4× with deionized water, twice with TBST.
15. Add 100 μl anti-phosphotyrosine (1:3000 dilution in TBST) per well. Incubate 30-45 min. at room temperature, with shaking.
(§7) 16. Wash as described in 4, above.
17. […] Incubate 30 min. at room temperature, with shaking.
(§8) 18. Wash as described in 4, above.
(§9) 19. Add 100 μl of ABTS/H2O2 solution to each well.
20. Incubate 10 to 30 minutes with shaking. Remove any bubbles.
(§10) 21. If necessary stop reaction with the addition of 100 μl 0.2 M HCl per well.

Another assay addresses T3, src protein kinase (Gallus gallus, UniProt P00523).
T3 construct: made in house; host or cells: Schizosaccharomyces pombe strain SP200
The assay can be described thus: Biochemical src assay (bio SRC). As to bio SRC, outcome of primary assay: key: DNH = did not hit in primary assay. On the procedure:
This assay is used to determine src protein kinase activity measuring phosphorylation of a biotinylated peptide as the readout.
a. Yeast transformed with src (Sugen, Inc., Redwood City, Calif.).
1. Coat ELISA plate with 0.5 μg/well anti-src mab in 100 μl of pH 9.6 sodium carbonate buffer; hold at 4° C. overnight.
2. Wash wells once with PBS.
3. Block plate with 0.15 ml 5% milk in PBS for 30 min. at room temperature.
4. Wash plate 5× with PBS.
5. Add 10 μg/well of src transformed yeast lysates diluted in Lysis Buffer (0.1 ml total volume per well). (Amount of lysate may vary between batches.) Shake plate for 20 minutes at room temperature.
1. 4G10 plate: coat 0.5 μg/well 4G10 in 100 μl PBS overnight at 4° C. and block with 150 μl of 5% milk in PBS for 30 minutes at room temperature.
1. Remove unbound proteins.from plates and wash plates 5× with PBS.
2. Add 0.08 ml Kinase Reaction Mixture per well (containing 10 μl of 10×-Kinase Buffer and 10 μM (final concentration) biotin-EEEYEEYEEEYEEEYEEEY per well diluted in water.
3. Add 10 μl of compound diluted in water containing 10% DMSO and pre-incubate for 15 minutes at room temperature.
4. Start kinase reaction by adding 10 μl/well of 0.05 mM ATP in water (5 μM ATP final).
5. Shake ELISA plate for 15 min. at room temperature.
6. Stop kinase reaction by adding 10 μl of 0.5 M EDTA per well.
7. Transfer 90 μl supernatant to a blocked 4G10 coated ELISA plate.
8. Incubate for 30 min. while shaking at room temperature.
9. Wash plate 5× with TBST.
10. Incubate with Vectastain ELITE ABC reagent (100 μl/well) for 30 min. at room temperature.
11. Wash the wells 5× with TBST.
12. Develop with Turbo TMB.

Another assay deals with EGFR (Homo sapiens, UniProt P00533). The assay can be described thus: Biochemical EGFR assay (bio EGFR), ELISA. Also on record: A431 cell lysate (Screening Lab, SUGEN, Inc.); endogenous in cells; host or cells: A431. As to conditions: 50% inhibition of target PTK activity; read-out: bio EGFR (Page 5) IC50. As to the method: This assay measures the in vitro kinase activity of EGFR using ELISA.
6. A431 cell lysate (Screening Lab, SUGEN, Inc.)
1. Coat Corning 96 well ELISA plates with 0.5 μg […] in
100 μl PBS per well, store overnight at 4° C.
2. Remove unbound SUMO1 from wells by inverting plate to remove liquid. Wash 1× with dH2O. Pat the plate on a paper towel to remove excess liquid.
as §1, §2
5. Dilute lysate in PBS (7 μg lysate/100 μl PBS).
as §3, §4
8. Add 120 μl TBS to ELISA plate containing captured EGFR.
9. Dilute test compound 1:10 in TBS in 96-well polypropylene plates (ie. 10 μl compound+90 μl TBS).
10. Add 13.5 μl diluted test compound to ELISA plate.
as §5
13. After 5 minutes, stop reaction by adding 16.5 μl of 200 mM EDTA (pH 8.0) to each well, shaking continuously. After the EDTA has been added, shake for 1 min.
as §6
15. Add 100 μl anti-phosphotyrosine (1:3000 dilution.in TBST) per well. Incubate 30-45 min. at room temperature, with shaking.
as §7
17. Add 100 μl Biosource Goat anti-rabbit IgG peroxidase conjugate (1:2000 dilution in TBST) to each well. Incubate 30 min. at room temperature, with shaking.
as §8, §9
20. Incubate 5 to 10 minutes with shaking. Remove any bubbles.
as §10
22. Read assay on Dynatech MR7000 ELISA reader. Test Filter: 410 nM Reference Filter: 630 nM
Background: An ELISA detects its analyte on a solid surface through an enzyme-linked reagent.

T1 sequence (P08069 31-1367): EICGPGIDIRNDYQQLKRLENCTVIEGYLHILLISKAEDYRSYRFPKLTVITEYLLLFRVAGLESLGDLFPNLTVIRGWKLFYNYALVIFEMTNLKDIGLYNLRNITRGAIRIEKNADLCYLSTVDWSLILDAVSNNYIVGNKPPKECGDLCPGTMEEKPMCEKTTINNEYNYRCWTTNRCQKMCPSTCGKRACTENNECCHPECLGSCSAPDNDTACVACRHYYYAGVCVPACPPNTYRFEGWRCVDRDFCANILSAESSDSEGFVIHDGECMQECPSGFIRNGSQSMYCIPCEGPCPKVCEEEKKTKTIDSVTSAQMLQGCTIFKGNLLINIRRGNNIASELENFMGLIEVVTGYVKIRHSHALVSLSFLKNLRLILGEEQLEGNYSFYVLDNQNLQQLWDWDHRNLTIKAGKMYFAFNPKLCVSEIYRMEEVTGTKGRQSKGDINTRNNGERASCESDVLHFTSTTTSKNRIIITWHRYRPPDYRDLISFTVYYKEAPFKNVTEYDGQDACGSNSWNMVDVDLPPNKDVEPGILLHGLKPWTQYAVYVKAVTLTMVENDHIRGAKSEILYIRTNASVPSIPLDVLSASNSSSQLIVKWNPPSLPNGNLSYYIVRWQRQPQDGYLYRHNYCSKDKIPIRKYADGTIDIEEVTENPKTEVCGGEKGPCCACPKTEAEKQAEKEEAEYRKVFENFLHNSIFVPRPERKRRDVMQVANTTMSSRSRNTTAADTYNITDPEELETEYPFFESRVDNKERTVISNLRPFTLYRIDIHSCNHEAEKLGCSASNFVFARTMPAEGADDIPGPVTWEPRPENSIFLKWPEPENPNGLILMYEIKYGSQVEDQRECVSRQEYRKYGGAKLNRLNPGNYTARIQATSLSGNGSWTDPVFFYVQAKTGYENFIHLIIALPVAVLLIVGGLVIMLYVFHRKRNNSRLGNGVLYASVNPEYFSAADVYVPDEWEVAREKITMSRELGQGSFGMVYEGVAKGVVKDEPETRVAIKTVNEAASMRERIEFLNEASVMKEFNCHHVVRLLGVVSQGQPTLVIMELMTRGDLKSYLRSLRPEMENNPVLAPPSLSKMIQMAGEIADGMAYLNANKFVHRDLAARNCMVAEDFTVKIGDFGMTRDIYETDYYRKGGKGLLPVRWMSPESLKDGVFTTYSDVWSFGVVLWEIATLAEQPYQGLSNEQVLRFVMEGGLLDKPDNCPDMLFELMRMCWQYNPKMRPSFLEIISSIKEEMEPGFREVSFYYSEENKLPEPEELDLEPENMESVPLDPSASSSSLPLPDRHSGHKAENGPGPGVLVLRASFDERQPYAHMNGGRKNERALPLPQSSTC
Chain of EGFR (P00533 25-1210): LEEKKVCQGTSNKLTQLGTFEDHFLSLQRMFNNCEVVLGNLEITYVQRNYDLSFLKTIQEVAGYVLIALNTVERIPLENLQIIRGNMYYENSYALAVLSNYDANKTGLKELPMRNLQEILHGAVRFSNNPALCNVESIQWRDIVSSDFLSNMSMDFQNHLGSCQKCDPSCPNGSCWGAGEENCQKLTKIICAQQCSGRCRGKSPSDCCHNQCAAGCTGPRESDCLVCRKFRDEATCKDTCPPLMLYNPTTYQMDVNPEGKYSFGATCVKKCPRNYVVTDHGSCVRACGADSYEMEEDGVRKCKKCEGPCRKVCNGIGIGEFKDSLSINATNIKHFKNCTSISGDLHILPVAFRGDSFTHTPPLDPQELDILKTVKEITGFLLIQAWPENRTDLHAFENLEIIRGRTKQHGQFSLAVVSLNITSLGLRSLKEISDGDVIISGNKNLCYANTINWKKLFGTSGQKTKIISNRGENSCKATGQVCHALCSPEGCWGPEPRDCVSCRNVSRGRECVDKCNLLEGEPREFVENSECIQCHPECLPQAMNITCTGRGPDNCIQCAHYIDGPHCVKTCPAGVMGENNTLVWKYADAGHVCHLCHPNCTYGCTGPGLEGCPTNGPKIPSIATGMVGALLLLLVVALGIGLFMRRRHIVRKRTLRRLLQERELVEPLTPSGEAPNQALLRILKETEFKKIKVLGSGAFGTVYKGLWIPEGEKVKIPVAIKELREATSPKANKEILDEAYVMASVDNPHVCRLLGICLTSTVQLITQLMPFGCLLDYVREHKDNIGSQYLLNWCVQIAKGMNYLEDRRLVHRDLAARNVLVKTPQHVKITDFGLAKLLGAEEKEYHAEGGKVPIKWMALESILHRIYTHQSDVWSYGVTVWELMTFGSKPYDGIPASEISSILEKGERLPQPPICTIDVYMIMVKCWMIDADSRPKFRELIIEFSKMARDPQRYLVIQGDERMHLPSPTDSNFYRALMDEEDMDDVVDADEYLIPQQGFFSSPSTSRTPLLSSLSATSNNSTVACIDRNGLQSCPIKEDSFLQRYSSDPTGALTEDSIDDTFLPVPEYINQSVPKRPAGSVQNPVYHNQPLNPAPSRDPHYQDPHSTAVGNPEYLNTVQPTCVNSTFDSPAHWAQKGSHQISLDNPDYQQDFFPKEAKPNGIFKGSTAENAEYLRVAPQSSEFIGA
Chain of Pyk2 (Q14289 whole entry, species assumed): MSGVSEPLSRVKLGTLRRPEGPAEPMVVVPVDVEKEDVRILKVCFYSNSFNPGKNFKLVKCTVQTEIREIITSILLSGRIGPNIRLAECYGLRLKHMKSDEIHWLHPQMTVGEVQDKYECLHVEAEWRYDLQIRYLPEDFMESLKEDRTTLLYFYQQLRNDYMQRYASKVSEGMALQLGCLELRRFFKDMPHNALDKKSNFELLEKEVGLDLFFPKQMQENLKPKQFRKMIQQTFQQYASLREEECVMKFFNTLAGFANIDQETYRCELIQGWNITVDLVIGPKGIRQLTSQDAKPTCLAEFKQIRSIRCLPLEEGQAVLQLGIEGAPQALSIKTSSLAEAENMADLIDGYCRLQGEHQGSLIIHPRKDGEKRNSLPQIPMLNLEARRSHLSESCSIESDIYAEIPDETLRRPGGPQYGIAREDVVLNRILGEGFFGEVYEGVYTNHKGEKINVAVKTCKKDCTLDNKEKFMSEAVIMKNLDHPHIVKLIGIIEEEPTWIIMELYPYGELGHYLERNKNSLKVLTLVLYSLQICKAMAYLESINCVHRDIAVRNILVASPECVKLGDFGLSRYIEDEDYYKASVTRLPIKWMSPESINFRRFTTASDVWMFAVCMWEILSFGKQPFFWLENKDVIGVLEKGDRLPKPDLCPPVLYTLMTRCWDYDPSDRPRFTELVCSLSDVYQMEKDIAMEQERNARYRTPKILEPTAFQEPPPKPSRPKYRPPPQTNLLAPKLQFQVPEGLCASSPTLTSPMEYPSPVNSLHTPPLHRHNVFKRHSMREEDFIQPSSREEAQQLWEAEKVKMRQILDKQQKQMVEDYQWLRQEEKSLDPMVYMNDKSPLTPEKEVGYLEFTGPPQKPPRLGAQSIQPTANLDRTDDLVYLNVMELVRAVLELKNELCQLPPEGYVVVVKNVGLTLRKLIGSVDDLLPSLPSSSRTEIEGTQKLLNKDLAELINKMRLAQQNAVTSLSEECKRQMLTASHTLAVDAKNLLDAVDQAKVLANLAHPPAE
T2 sequence (P09619 33-1106, species assumed): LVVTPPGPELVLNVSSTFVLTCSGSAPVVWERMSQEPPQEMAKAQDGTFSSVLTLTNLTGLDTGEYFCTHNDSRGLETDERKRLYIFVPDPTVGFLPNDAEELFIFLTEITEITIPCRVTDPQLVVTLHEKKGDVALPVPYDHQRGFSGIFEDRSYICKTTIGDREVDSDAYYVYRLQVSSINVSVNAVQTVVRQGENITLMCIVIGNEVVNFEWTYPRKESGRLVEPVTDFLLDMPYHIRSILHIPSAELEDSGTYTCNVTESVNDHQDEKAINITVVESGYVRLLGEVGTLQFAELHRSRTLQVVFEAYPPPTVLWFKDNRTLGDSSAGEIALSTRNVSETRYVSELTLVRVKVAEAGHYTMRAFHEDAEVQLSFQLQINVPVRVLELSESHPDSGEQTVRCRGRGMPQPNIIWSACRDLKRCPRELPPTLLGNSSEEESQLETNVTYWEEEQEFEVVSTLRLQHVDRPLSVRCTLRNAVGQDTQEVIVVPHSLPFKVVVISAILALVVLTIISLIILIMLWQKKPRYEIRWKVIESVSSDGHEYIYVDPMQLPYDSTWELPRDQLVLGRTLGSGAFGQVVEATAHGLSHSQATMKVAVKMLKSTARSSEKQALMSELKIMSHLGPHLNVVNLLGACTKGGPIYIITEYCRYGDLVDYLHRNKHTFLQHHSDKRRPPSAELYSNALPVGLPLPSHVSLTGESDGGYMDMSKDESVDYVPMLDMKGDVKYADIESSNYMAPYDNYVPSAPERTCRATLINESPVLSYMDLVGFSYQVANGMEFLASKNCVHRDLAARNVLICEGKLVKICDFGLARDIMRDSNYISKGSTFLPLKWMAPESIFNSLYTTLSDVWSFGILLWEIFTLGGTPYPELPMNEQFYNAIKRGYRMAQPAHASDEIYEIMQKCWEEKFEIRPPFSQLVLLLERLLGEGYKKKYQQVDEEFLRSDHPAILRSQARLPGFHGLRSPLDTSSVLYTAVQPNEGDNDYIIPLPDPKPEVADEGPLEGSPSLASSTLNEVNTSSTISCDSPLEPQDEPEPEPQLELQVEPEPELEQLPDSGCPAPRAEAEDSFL

Take `COc1ccc2c(c1)/C(=C1\C(=O)Nc3ccccc31)CC2` [Compound 4, 3-(6-Methoxyindan-1-ylidene)-1,3-dihydroindol-2-one]: on Pyk2 (primary assay), the “Pyk2, outcome of primary assay” value is reported as “DNH”. In addition, at IGF-1 receptor (primary assay), the “cell IGF, outcome of primary assay” value was “DNH”. Also, the IC50 on PDGFR and on EGFR was over 100 µM throughout. Further, the “bio SRC, outcome of primary assay” value at src protein kinase (primary assay) is listed as “DNH”.

On to `Nc1ccc2c(c1)CC/C2=C1/C(=O)Nc2ccccc21` [Compound 6, 3-(5-Aminoindan-1-ylidene)-1,3-dihydroindol-2-one], for which the IC50 at Pyk2 (50% inhibition of target PTK activity, read-out: Pyk2 IC50) was 8.1 µM; on PDGFR, 5.5 µM; at src protein kinase (50% inhibition of target PTK activity), over 100 µM; at EGFR, over 100 µM. For the same compound, the “cell IGF % Inh” value on IGF-1 receptor (concentration not given) came to 96.7% Inh.

By IC50 is commonly meant the midpoint of a concentration-inhibition curve.
